According to patent US10781262B2, “Combination therapy of T cell activating bispecific antigen binding molecules and PD-1 axis binding antagonists” (Hoffmann-La Roche Inc., priority 2014, dated 2020):
Like-named read-outs stand apart in the source and are kept apart here.

Legend:
[1] = tested on: recombinant CHO K1 stabile expressing human TIM-3; experiment: Cytotoxic activity, CellTiter-Glo Luminescent Cell Viability Assay; type: cell-based; conditions: CHO-K1, 72 h; sandwich format: mouse Fcγ antibodies + mouse Fcγ specific Fabs conjugated with PE 24, 3 days
Pfeiffer cells = experiment: as above; conditions: for IC50: Homo sapiens, Pfeiffer
Protocol: (§1) Treatment ranges from 10 μg/ml to 1 ng/ml in triplicate. All antibodies were used as full length mouse Fcγ versions. For conjugation of the conjugation of the Pseudomonas exotoxin 10 μg/ml of mouse Fcγ fragment specific Fabs conjugated with PE 24 were added and incubated for 3 days at 37° C. Cycloheximide as a known protein synthesis inhibitor in eukaryotes was used as positive control. Viability of treated cells were measured with Promega CellTiter-Glo Luminescent Cell Viability Assay.
(§2) The cytotoxic activity was calculated as follow: Rel. Inhibition [%]=(1−(Esampel−E negative control)/(E positive control−E negative control))*100
(§3) All antibodies were used as full length human IgG1 format including the human Fcgamma part. In this experiment conjugation of the Pseudomonas exotoxin was achieved via human Fcγ fragment specific Fabs conjugated with PE 24 (10 μg/ml) which were added and incubated for 5 days at 37° C.
(§4) The cytotoxic activity was analysed with Promega CellTiter-Glo Luminescent Cell Viability Assay as described above. 1:5 serial dilutions of Fab-fragments of disclosed anti-TIM3 antibodies directly conjugated to PE24 with the highest concentration of 50 μg/ml or appropriate media to untreated cells or non-binding anti-PSMA Fab-PE24 control to untargeted treated cells were incubated with 7.5×10^3 Pfeiffer cells or 2×10^3 RPMI-8226 cells (50 μl/well in […]) for 4 days at 37° C. Treatment ranges from 50 μg/ml to 8 ng/ml in triplicate. Cycloheximide was used as positive control.
(§5) The evaluation of cytotoxic activity of sortase coupled Fab-PE24 constructs of selected disclosed anti-TIM3 antibodies was analysed with Promega CellTiter-Glo Luminescent Cell Viability Assay as described above in Example 28.

RPMI-8226 cells = experiment: as above; conditions: for IC50: Homo sapiens
Protocol: as §1, §2, §3, §4, §5

CMK = experiment: as above; type: cell-based; conditions: Fab-PE24 constructs
Description: (§6) Cycloheximide was used as positive control.

Karpas-299 = experiment: as above; type: cell-based; conditions: Fab-PE24 constructs
Description: as §6

MOLM-13 = experiment: as above; type: cell-based; conditions: Fab-PE24 constructs
Description: as §6

TF-1 = experiment: as above; type: cell-based; conditions: Fab-PE24 constructs
Description: as §6

[2] = tested on: primary CD34+ AML cells from relapsed/refractory patients; experiment: Cytotoxic activity on primary AML cells, CellTiter-Glo; type: cell-based, human; conditions: Fab-PE24 constructs, 3 days; for IC50: Homo sapiens, 72 h
Description: CD34^+ cells from peripheral blood of relapsed/refractory patients were obtained from AllCells, LLC, Alameda, Calif. […] (see FIG. 31).
as §6

cynomolgus FolR1 = conditions: IgG injected for 60 seconds at 500 nM
Protocol: (§7) Binding of FolR1 binders as IgG or in the T-cell bispecific format to different recombinant folate receptors (human FolR1, 2 and 3, murine FolR1 and cynomolgus FolR1; all as Fc fusions) was assessed by surface plasmon resonance (SPR). All SPR experiments were performed on a Biacore T200 at 25° C. with HBS-EP as running buffer (0.01 M HEPES pH 7.4, 0.15 M NaCl, 3 mM EDTA, 0.005% Surfactant P20, Biacore, Freiburg/Germany).
(§8) First the anti-FolR1 IgGs were analyzed by single injections (Table 1) to characterize their crossreactivity (to human, murine and cyno FolR1) and specificity (to human FolR1, human FolR2, human FolR3). Recombinant biotinylated monomeric Fc fusions of human, cynomolgus and murine Folate Receptor 1 (FolR1-Fc) or human Folate Receptor 2 and 3 (FolR2-Fc, FolR3-Fc) were directly coupled on a SA chip using the standard coupling instruction (Biacore, Freiburg/Germany). The immobilization level was about 300-400 RU. The IgGs were injected for 60 seconds at a concentration of 500 nM.

human FolR1 = human FolR1 (Homo sapiens, UniProt P15328); conditions: IgG injected for 60 seconds at 500 nM
Protocol: as §7, §8

human FolR2 = human FolR2 (Homo sapiens, UniProt P14207); conditions: IgG injected for 60 seconds at 500 nM
Protocol: as §7, §8

human FolR3 = human FolR3 (Homo sapiens, UniProt P41439); conditions: IgG injected for 60 seconds at 500 nM
Protocol: as §7, §8

murine FolR1 = murine FolR1 (Mus musculus, UniProt P35846); conditions: IgG injected for 60 seconds at 500 nM
Protocol: as §7, §8

[3] = molecular target: T1, human Folate Receptor 1 (FolR1-Fc) (Homo sapiens, UniProt P15328); experiment: SPR avidity to Folate Receptor 1 (bivalent binding); conditions: bivalent binding (avidity), ligand huFolR1
T1 construct: the extracellular domain of the antigen linked to the hinge region of Fc-knob; made in house; host or cells: HEK293 EBNA
Description: The immobilization level was about 300-400 RU. […] The dissociation was monitored for 600 seconds.

[4] = tested on: cynomolgus Folate Receptor 1 (FolR1-Fc); conditions: bivalent binding (avidity), ligand cyFolR1
Protocol: as §7
The avidity of the interaction between the anti-FolR1 IgGs or T cell bispecifics and the recombinant folate receptors was determined as described below (Table 9). Recombinant biotinylated monomeric Fc fusions of human, cynomolgus and murine Folate Receptor 1 (FolR1-Fc) were directly coupled on a SA chip using the standard coupling instruction (Biacore, Freiburg/Germany). The immobilization level was about 300-400 RU. The anti-FolR1 IgGs or T cell bispecifics were passed at a concentration range from 2.1 to 500 nM with a flow of 30 μL/minutes through the flow cells over 180 seconds. The dissociation was monitored for 600 seconds. […] The binding curves resulting from the bivalent binding of the IgGs or T cell bispecifics were approximated to a 1:1 Langmuir binding and fitted with that model (which is not correct, but gives an idea of the avidity). The apparent avidity constants for the interactions were derived from the rate constants of the fitting using the Bia Evaluation software (GE Healthcare).

[5] = molecular target: cyno Folate Receptor 1 Fc fusion; conditions: monovalent binding (affinity), analyte cyFolR1
Protocol: as §7
(§9) For affinity measurement, direct coupling of around 6000-7000 resonance units (RU) of the anti-human Fab specific antibody (Fab capture kit, GE Healthcare) was performed on a CM5 chip at pH 5.0 using the standard amine coupling kit (GE Healthcare). Anti-FolR1 IgGs or T cell bispecifics were captured at 20 nM with a flow rate of 10 μl/min for 20 or 40 sec, the reference flow cell was left without capture. Dilution series (6.17 to 500 nM or 12.35 to 3000 nM) of human or cyno Folate Receptor 1 Fc fusion were passed on all flow cells at 30 μl/min for 120 or 240 sec to record the association phase. The dissociation phase was monitored for 240 s and triggered by switching from the sample solution to HBS-EP. The chip surface was regenerated after every cycle using a double injection of 60 sec 10 mM Glycine-HCl pH 2.1 or pH 1.5. Bulk refractive index differences were corrected for by subtracting the response obtained on the reference flow cell 1. The affinity constants for the interactions were derived from the rate constants by fitting to a 1:1 Langmuir binding using the Bia Evaluation software (GE Healthcare).

[6] = molecular target: human Folate Receptor 1 Fc fusion (Homo sapiens, UniProt P15328); conditions: monovalent binding (affinity), analyte huFolR1
Protocol: as §7, §9

[7] = Fab-PE24 construct vs. total IgG-Amatoxin conjugate
[8] = sortase coupled Fab-PE24 constructs
[9] = human IgG1 format + human Fcγ specific Fabs conjugated with PE 24, 5 days

Chain of cyno Folate Receptor 1 Fc fusion (as listed by the source): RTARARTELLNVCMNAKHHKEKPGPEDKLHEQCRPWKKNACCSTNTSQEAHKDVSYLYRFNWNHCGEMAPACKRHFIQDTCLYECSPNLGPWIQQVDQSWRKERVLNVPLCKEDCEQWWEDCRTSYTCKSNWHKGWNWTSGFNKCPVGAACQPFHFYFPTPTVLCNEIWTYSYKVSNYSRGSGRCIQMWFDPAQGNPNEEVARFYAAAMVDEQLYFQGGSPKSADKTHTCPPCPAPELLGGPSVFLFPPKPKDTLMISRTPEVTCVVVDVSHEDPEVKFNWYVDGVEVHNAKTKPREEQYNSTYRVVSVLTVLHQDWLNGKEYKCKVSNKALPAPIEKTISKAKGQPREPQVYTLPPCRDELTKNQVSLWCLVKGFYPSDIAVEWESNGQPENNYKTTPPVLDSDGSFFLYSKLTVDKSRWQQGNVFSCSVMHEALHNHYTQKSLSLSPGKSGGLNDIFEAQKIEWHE
Chain of cyno Folate Receptor 1 Fc fusion (P01857 104-330 isoform P01857-1 Y232C/T249S/L251A/Y290V/H318R/Y319F partner): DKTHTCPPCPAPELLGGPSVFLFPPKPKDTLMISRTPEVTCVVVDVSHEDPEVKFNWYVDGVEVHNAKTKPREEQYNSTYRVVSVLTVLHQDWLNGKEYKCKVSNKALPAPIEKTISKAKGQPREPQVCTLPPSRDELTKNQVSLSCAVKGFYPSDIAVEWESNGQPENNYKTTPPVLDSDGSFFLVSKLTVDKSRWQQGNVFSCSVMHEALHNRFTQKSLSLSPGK
Chain of cynomolgus Folate Receptor 1 (FolR1-Fc) (as listed by the source): as the sequence (as listed by the source) above
Chain of cynomolgus Folate Receptor 1 (FolR1-Fc) (as listed by the source partner): as the sequence (P01857 104-330 isoform P01857-1 Y232C/T249S/L251A/Y290V/H318R/Y319F partner) above
Chain of human Folate Receptor 1 Fc fusion (P15328 with tags, fused parts or gaps): as the sequence (as listed by the source) above, with T2I, R4W, K37R, P146A, Y171H counted along it
Chain of human Folate Receptor 1 Fc fusion (P01857 104-330 isoform P01857-1 Y232C/T249S/L251A/Y290V/H318R/Y319F partner): as the sequence (P01857 104-330 isoform P01857-1 Y232C/T249S/L251A/Y290V/H318R/Y319F partner) above
T1 sequence (P15328 with tags, fused parts or gaps): as the sequence (as listed by the source) above, with T2I, R4W, K37R, P146A, Y171H counted along it
T1 sequence (P01857 104-330 isoform P01857-1 Y232C/T249S/L251A/Y290V/H318R/Y319F partner): as the sequence (P01857 104-330 isoform P01857-1 Y232C/T249S/L251A/Y290V/H318R/Y319F partner) above
Chain of murine FolR1 (P35846 with tags, fused parts or gaps): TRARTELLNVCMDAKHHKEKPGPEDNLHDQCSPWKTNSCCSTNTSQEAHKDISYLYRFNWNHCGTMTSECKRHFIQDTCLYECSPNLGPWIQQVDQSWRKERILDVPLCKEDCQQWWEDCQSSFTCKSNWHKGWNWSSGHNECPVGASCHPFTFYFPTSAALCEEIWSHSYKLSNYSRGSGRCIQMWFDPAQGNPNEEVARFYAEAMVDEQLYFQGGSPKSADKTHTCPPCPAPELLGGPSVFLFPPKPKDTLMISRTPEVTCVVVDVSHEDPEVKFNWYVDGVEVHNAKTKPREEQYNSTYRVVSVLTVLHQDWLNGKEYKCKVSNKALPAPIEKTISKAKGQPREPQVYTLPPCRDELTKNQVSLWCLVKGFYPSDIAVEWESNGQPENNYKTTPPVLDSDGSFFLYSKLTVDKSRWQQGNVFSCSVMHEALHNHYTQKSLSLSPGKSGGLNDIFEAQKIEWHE
Chain of murine FolR1 (as listed by the source partner): as the sequence (P01857 104-330 isoform P01857-1 Y232C/T249S/L251A/Y290V/H318R/Y319F partner) above
Chain of human FolR3 (P41439 with tags, fused parts or gaps): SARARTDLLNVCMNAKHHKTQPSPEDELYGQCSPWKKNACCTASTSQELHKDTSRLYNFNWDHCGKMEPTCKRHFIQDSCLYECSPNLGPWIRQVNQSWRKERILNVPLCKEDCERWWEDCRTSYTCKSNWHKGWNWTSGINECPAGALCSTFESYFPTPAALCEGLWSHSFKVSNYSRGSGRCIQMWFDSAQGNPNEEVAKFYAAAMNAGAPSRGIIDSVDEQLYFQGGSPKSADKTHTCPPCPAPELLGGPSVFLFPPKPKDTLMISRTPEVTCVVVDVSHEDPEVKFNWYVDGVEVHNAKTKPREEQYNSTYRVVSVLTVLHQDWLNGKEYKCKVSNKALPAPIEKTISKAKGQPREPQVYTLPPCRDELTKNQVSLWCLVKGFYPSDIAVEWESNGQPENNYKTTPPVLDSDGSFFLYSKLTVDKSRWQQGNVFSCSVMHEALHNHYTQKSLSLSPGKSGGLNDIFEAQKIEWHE
Chain of human FolR3 (P01857 104-330 isoform P01857-1 Y232C/T249S/L251A/Y290V/H318R/Y319F partner): as the sequence (P01857 104-330 isoform P01857-1 Y232C/T249S/L251A/Y290V/H318R/Y319F partner) above
Chain of cynomolgus FolR1 (as listed by the source): as the sequence (as listed by the source) above
Chain of human FolR2 (P14207 with tags, fused parts or gaps): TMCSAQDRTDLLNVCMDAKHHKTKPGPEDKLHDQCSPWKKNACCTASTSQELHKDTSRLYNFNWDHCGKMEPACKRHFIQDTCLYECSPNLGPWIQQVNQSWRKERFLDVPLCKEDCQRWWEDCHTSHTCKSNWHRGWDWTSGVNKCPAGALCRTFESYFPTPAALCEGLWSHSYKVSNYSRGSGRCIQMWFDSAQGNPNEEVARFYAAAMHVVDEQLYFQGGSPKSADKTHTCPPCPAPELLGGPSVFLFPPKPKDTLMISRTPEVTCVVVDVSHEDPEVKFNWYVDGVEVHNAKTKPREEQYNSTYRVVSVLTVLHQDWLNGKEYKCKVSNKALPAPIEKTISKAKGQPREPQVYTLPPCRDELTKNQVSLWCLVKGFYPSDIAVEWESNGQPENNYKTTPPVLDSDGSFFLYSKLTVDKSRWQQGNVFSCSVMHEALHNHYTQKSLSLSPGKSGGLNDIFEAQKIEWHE
Chain of human FolR2 (P01857 104-330 isoform P01857-1 Y232C/T249S/L251A/Y290V/H318R/Y319F partner): as the sequence (P01857 104-330 isoform P01857-1 Y232C/T249S/L251A/Y290V/H318R/Y319F partner) above
Chain of human FolR1 (P15328 with tags, fused parts or gaps): as the sequence (as listed by the source) above, with T2I, R4W, K37R, P146A, Y171H counted along it
Chain of human FolR1 (P01857 104-330 isoform P01857-1 Y232C/T249S/L251A/Y290V/H318R/Y319F partner): as the sequence (P01857 104-330 isoform P01857-1 Y232C/T249S/L251A/Y290V/H318R/Y319F partner) above

C[C@@H]1C[C@@H]([C@H](O)CC2CC(=O)NC(=O)C2)C(=O)[C@@H](C)C1 [Cycloheximide]
IC50 [1]: 135 nM | Max. killing (Pfeiffer cells; [7]): 100 [%] | IC50 (Pfeiffer cells; 72 h, sandwich format: mouse Fcγ antibodies + mouse Fcγ specific Fabs conjugated with PE 24, 3 days): 181 nM | IC50 (Pfeiffer cells; 120 h, read-out: Rel. IC50, human IgG1 format + human Fcγ specific Fabs conjugated with PE 24, 5 days): 271 nM | IC50 (Pfeiffer cells; [7]): 163 nM | IC50 (Pfeiffer cells; [8]): 271 nM | Max. killing (Pfeiffer cells; [9]): 100 [%] | Max. killing (Pfeiffer cells; [8]): 100 [%] | Max. killing (RPMI-8226 cells; Fab-PE24 constructs, 4 days): 100 [%] | IC50 (RPMI-8226 cells; RPMI-8226): 153 nM | IC50 (RPMI-8226 cells; RPMI-8226, 96 h): 281 nM | Max. killing (RPMI-8226 cells; [9]): 100 [%] | Max. killing (RPMI-8226 cells; [8]): 100 [%] | Max. killing (CMK): 100 [%] | IC50 (CMK; Homo sapiens, CMK): 149 nM | Max. killing (Karpas-299): 100 [%] | IC50 (Karpas-299; Homo sapiens, KARPAS-299): 113 nM | Max. killing (MOLM-13): 100 [%] | IC50 (MOLM-13; Homo sapiens, MOLM-13): 156 nM | Max. killing (TF-1): 100 [%] | IC50 (TF-1; Homo sapiens, TF-1): 207 nM | Max. killing ([2]; D1, AML CD34+ PB0136 cells): 100 [%] | Max. killing ([2]; D2, AML CD34+ PB0142 cells): 100 [%] | Max. killing ([2]; D3, AML CD34+ PB0135 cells): 100 [%] | Max. killing ([2]; D4, AML CD34+ PB0193 cells): 100 [%] | IC50 ([2]; D1, AML CD34+ PB0136 cells): 212 nM | IC50 ([2]; D2, AML CD34+ PB0142 cells): 262 nM | IC50 ([2]; D3, AML CD34+ PB0135 cells): 121 nM | IC50 ([2]; D4, AML CD34+ PB0193 cells): 208 nM

Farletuzumab [reference compound]
Binding to cyFolR1 (cynomolgus FolR1): + | Binding to huFolR1 (human FolR1): + | Binding to huFolR2 (human FolR2): − | Binding to huFolR3 (human FolR3): − | Binding to muFolR1 (murine FolR1): − | ka [3]: 1.23e+06 M⁻¹ s⁻¹ | kd [3]: 0.0009 s⁻¹ | ka [4]: 1.33e+06 M⁻¹ s⁻¹ | kd [4]: 0.000868 s⁻¹ | Kd ([4]; read-out: Apparent KD, approximated 1:1 Langmuir fit): 0.65 nM | Kd [5]: 67.3 nM | ka [5]: 553000 M⁻¹ s⁻¹ | kd [5]: 0.0373 s⁻¹ | ka [6]: 417000 M⁻¹ s⁻¹ | kd [6]: 0.023 s⁻¹
